Experimental data from patent EP1247803A2, “Indolinone compounds suitable for modulation of protein kinases” (Sugen, Inc., priority 1996, dated 1998).

How the values were obtained:
MET = MET biochemical kinase assay; design: species or system human; concentration or dose not given beside the values
Summary of the method: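 Human MET was captured from cell lysates onto ELISA plates via goat anti-rabbit Fc and rabbit polyclonal antibody to the MET cytoplasmic domain. After washing, test compounds and kinase buffer with ATP and divalent metal ions were added. Phosphotyrosine was detected with HRP-conjugated anti-phosphotyrosine antibody and TMB colorimetric read-out.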

EGFR = target: T1, EGFR (Homo sapiens, UniProt P00533); experiment: EGFR ELISA assay (in vitro kinase activity, EGFR captured from A431 cell lysate); format: biochemical; design: concentration or dose not given beside the values
T1 construct: Add 7 ug A431 cell lysate per well (EGFR source); endogenous in cells; host or cells: A431
Summary of the method: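 EGFR from A431 lysate was captured on plates coated with anti-EGFR antibody. Compounds were added 30 min before a 5 min phosphorylation with 3 µM ATP/5 mM MnCl2, which was stopped with 20 mM EDTA. Phosphotyrosine was detected with rabbit anti-phosphotyrosine, then a peroxidase-conjugated secondary and ABTS/H2O2, read at 410 nm.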

T1 sequence (P00533 25-1210): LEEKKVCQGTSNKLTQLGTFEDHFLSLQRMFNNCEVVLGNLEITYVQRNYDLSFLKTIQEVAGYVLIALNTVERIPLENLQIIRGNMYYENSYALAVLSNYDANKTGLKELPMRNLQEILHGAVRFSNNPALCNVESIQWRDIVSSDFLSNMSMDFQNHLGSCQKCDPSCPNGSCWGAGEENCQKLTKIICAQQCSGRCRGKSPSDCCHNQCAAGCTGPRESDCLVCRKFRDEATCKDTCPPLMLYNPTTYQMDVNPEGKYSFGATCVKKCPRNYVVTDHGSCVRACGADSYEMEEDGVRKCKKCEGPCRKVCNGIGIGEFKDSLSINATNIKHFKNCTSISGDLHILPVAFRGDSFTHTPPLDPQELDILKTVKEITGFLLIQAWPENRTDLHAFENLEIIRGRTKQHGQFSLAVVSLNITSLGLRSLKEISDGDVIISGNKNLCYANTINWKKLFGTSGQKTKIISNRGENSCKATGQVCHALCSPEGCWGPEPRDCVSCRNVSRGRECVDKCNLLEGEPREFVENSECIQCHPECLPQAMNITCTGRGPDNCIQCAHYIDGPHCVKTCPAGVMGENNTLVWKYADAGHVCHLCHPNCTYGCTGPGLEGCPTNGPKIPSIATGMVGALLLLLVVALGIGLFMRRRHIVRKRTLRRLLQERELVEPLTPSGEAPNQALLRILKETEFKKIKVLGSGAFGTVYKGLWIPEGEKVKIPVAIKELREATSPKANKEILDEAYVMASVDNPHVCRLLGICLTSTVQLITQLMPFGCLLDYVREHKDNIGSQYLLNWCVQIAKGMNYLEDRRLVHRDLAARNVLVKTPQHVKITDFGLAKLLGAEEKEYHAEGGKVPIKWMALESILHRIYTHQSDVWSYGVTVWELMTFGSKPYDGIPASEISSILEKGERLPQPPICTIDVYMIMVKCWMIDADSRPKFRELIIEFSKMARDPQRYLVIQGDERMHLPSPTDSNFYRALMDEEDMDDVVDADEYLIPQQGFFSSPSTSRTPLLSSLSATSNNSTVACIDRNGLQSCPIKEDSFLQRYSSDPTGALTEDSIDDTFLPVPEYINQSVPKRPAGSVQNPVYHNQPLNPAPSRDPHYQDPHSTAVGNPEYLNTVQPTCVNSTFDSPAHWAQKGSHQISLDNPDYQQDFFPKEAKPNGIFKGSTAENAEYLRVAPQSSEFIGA

Compound: CCOC(=O)CCc1c(C(=O)OCC)[nH]c(C=C2C(=O)Nc3ccc(S(=O)(=O)Nc4ccc(C(F)(F)F)cc4)cc32)c1CC(=O)OCC [10718/E05]
- Met Kinase % Inhibition (MET): 32.2%
- Biochem EGFR %Inhibition (EGFR): -3.1%

Compound: O=C1Nc2ccc(S(=O)(=O)Nc3ccc(C(F)(F)F)cc3)cc2C1=Cc1ccc2ccccc2c1O [10718/E04]
- Met Kinase % Inhibition (MET): 87.7%
- Biochem EGFR %Inhibition (EGFR): 16.4%

Compound: O=C1Nc2c(Br)cc(Br)cc2C1=Cc1cc(Cl)cc(Cl)c1O [10734/A03]
- Met Kinase % Inhibition (MET): 87.8%
- Biochem EGFR %Inhibition (EGFR): 18.5%

Compound: Cc1c(Br)ccc2c1C(=Cc1ccc([N+](=O)[O-])cc1)C(=O)N2 [10734/C06]
- Met Kinase % Inhibition (MET): 48.3%
- Biochem EGFR %Inhibition (EGFR): 18.4%

Compound: CCOc1cccc(C=C2C(=O)Nc3ccc(I)cc32)c1O [10734/B02]
- Met Kinase % Inhibition (MET): 61.9%
- Biochem EGFR %Inhibition (EGFR): -8.9%

Compound: COc1cc(Br)cc(C=C2C(=O)Nc3ccc(S(=O)(=O)Nc4ccc(C(F)(F)F)cc4)cc32)c1O [10733/E08]
- Met Kinase % Inhibition (MET): 81.1%
- Biochem EGFR %Inhibition (EGFR): 54.2%

Compound: O=C1Nc2c(Br)cc(Br)cc2C1=Cc1cc(Cl)ccc1O [10734/A04]
- Met Kinase % Inhibition (MET): 68.0%
- Biochem EGFR %Inhibition (EGFR): 11.4%

Compound: COc1c(O)ccc(C=C2C(=O)Nc3ccc(S(=O)(=O)Nc4ccc(C(F)(F)F)cc4)cc32)c1[N+](=O)[O-] [10733/E11]
- Met Kinase % Inhibition (MET): 71.8%
- Biochem EGFR %Inhibition (EGFR): 31.6%

Compound: COC(=O)c1[nH]c(C)c(C=C2C(=O)Nc3ccc(S(=O)(=O)Nc4ccc(C(F)(F)F)cc4)cc32)c1C(=O)OC [10718/E07]
- Met Kinase % Inhibition (MET): 80.5%
- Biochem EGFR %Inhibition (EGFR): 13.9%

Compound: CC(C)(C)c1cc(C=C2C(=O)Nc3ccc(S(=O)(=O)N4CCOCC4)cc32)cc(C(C)(C)C)c1OCc1ccccc1 [10733/F05]
- Met Kinase % Inhibition (MET): 65.1%
- Biochem EGFR %Inhibition (EGFR): 84.6%

Compound: Cc1c(Br)ccc2c1C(=Cc1cc(Br)cc(Br)c1O)C(=O)N2 [10734/C07]
- Met Kinase % Inhibition (MET): 96.8%
- Biochem EGFR %Inhibition (EGFR): 41.0%

Compound: COc1c(C(C)(C)C)cc(C=C2C(=O)Nc3ccc(S(=O)(=O)Nc4ccc(C(F)(F)F)cc4)cc32)cc1C(C)(C)C [10733/E04]
- Met Kinase % Inhibition (MET): 17.5%
- Biochem EGFR %Inhibition (EGFR): 45.4%

Compound: O=C1Nc2c(Br)cc(Br)cc2C1=Cc1cccc(F)c1O [10734/A08]
- Met Kinase % Inhibition (MET): 71.5%
- Biochem EGFR %Inhibition (EGFR): 6.8%

Compound: O=C1Nc2ccc(S(=O)(=O)N3CCOCC3)cc2C1=Cc1cc([N+](=O)[O-])ccc1O [10733/F10]
- Met Kinase % Inhibition (MET): 24.4%
- Biochem EGFR %Inhibition (EGFR): 21.9%

Compound: COc1c(C)cc(C=C2C(=O)Nc3ccc(S(=O)(=O)N4CCOCC4)cc32)cc1C [10733/F06]
- Met Kinase % Inhibition (MET): 20.9%
- Biochem EGFR %Inhibition (EGFR): 17.8%

Compound: O=C1Nc2ccc(S(=O)(=O)Nc3ccc(C(F)(F)F)cc3)cc2C1=Cc1cc([N+](=O)[O-])ccc1O [10733/E10]
- Met Kinase % Inhibition (MET): 52.8%
- Biochem EGFR %Inhibition (EGFR): 31.3%

Compound: COc1c([N+](=O)[O-])cc(C=C2C(=O)Nc3ccc(S(=O)(=O)N4CCOCC4)cc32)cc1C(C)(C)C [10733/F03]
- Met Kinase % Inhibition (MET): 24.2%
- Biochem EGFR %Inhibition (EGFR): -3.6%

Compound: O=C1Nc2ccc(I)cc2C1=Cc1ccc([N+](=O)[O-])cc1 [10734/B06]
- Met Kinase % Inhibition (MET): 91.2%
- Biochem EGFR %Inhibition (EGFR): 54.0%

Compound: CCOc1cccc(C=C2C(=O)Nc3ccc(Br)c(C)c32)c1O [10734/C02]
- Met Kinase % Inhibition (MET): 78.6%
- Biochem EGFR %Inhibition (EGFR): -6.7%

Compound: O=C1Nc2ccc(I)cc2C1=Cc1cc(Cl)cc(Cl)c1O [10734/B03]
- Met Kinase % Inhibition (MET): 90.1%
- Biochem EGFR %Inhibition (EGFR): 45.1%

Compound: Cc1c(O)ccc(C=C2C(=O)Nc3ccc(S(=O)(=O)Nc4ccc(C(F)(F)F)cc4)cc32)c1O [10718/E09]
- Met Kinase % Inhibition (MET): 80.8%
- Biochem EGFR %Inhibition (EGFR): 17.0%

Compound: O=C1Nc2ccc(S(=O)(=O)Nc3ccc(C(F)(F)F)cc3)cc2C1=Cc1cc(Br)ccc1O [10733/E09]
- Met Kinase % Inhibition (MET): 62.6%
- Biochem EGFR %Inhibition (EGFR): 72.4%

Compound: O=C1Nc2ccc(CCCl)cc2C1=Cc1cc([N+](=O)[O-])ccc1O [10733/G10]
- Met Kinase % Inhibition (MET): 41.9%
- Biochem EGFR %Inhibition (EGFR): 18.2%

Compound: Cc1[nH]c(C=C2C(=O)Nc3c(Br)cc(Br)cc32)c(Br)c1Br [10717/A11]
- Met Kinase % Inhibition (MET): 64.8%
- Biochem EGFR %Inhibition (EGFR): 59.9%

Compound: COc1c(C)cc(C=C2C(=O)Nc3ccc(S(=O)(=O)Nc4ccc(C(F)(F)F)cc4)cc32)cc1C [10733/E06]
- Met Kinase % Inhibition (MET): 10.4%
- Biochem EGFR %Inhibition (EGFR): 37.3%

Compound: COc1c(C)cc(C=C2C(=O)Nc3ccc(CCCl)cc32)cc1C [10733/G06]
- Met Kinase % Inhibition (MET): 0.8%
- Biochem EGFR %Inhibition (EGFR): 5.2%

Compound: CCOc1cccc(C=C2C(=O)Nc3c(Br)cc(Br)cc32)c1O [10734/A02]
- Met Kinase % Inhibition (MET): 51.1%
- Biochem EGFR %Inhibition (EGFR): 0.0%

Compound: O=C1Nc2ccc(I)cc2C1=Cc1ccc(O)c(Br)c1 [10734/B09]
- Met Kinase % Inhibition (MET): 94.3%
- Biochem EGFR %Inhibition (EGFR): 34.9%

Compound: Cc1c(Br)ccc2c1C(=Cc1cc(Cl)cc(Cl)c1O)C(=O)N2 [10734/C03]
- Met Kinase % Inhibition (MET): 88.2%
- Biochem EGFR %Inhibition (EGFR): 48.6%

Compound: CNS(=O)(=O)c1ccc2c(c1)C(=Cc1cc(Cl)cc(Cl)c1O)C(=O)N2 [10734/D03]
- Met Kinase % Inhibition (MET): 78.6%
- Biochem EGFR %Inhibition (EGFR): 19.6%

Compound: CC(C)(C)c1cc(C=C2C(=O)Nc3ccc(CCCl)cc32)cc(I)c1OCc1ccccc1 [10733/G02]
- Met Kinase % Inhibition (MET): 64.5%
- Biochem EGFR %Inhibition (EGFR): -6.2%

Compound: CCOC(=O)c1cc(C=C2C(=O)Nc3ccc(S(=O)(=O)Nc4ccc(C(F)(F)F)cc4)cc32)oc1C [10718/E06]
- Met Kinase % Inhibition (MET): 33.4%
- Biochem EGFR %Inhibition (EGFR): 2.0%

Compound: COc1c([N+](=O)[O-])cc(C=C2C(=O)Nc3ccc(CCCl)cc32)cc1C(C)(C)C [10733/G03]
- Met Kinase % Inhibition (MET): 30.5%
- Biochem EGFR %Inhibition (EGFR): 0.7%

Compound: COc1c(C(C)(C)C)cc(C=C2C(=O)Nc3ccc(S(=O)(=O)N4CCOCC4)cc32)cc1C(C)(C)C [10733/F04]
- Met Kinase % Inhibition (MET): 65.1%
- Biochem EGFR %Inhibition (EGFR): 76.3%

Compound: CC(C)(C)c1ccc(C=C2C(=O)Nc3ccc(I)cc32)cc1 [10734/B10]
- Met Kinase % Inhibition (MET): 82.6%
- Biochem EGFR %Inhibition (EGFR): 60.7%

Compound: O=C1Nc2c(Br)cc(Br)cc2C1=Cc1ccc([N+](=O)[O-])cc1 [10734/A06]
- Met Kinase % Inhibition (MET): 46.9%
- Biochem EGFR %Inhibition (EGFR): -6.4%
